In patent publication US9505749B2, “Quinazolinone compounds and derivatives thereof” (AMGEN INC., priority 2012, dated 2016):

How the values were obtained:
[1] = biological target: 6×HIS-tankyrase1 (1091-1325) (Homo sapiens (Human), UniProt O95271); test: Tankyrase 1 biochemical assay (AlphaLisa, PARsylation); conditions: 400 nM NAD, 60 minutes at RT; read-out: TNKS1 IC50
[2] = biological target: 6×HIS-tankyrase 2 (946-1162) (Homo sapiens (Human), UniProt Q9H2K2); test: Tankyrase 2 biochemical assay (AlphaLisa, PARsylation); conditions: 250 nM NAD; read-out: TNKS2 IC50
[3] = tested on: Axin2 accumulation in SW480 cells; test: Axin2 384 immunofluorescence assay; type: cell-based; conditions: Homo sapiens; SW480 cells, 24 hours; read-out: Axin2 384 IF EC50
PARP1 = PARP1 (Homo sapiens (Human), UniProt P09874); test: PARP1 biochemical assay (Trevigen kit)
Source text: PARP1 biochemical assay was purchased as a kit from Trevigen (cat.#4676-096-K) and used per manufacturers recommendations.

PARP2 = PARP2 (Homo sapiens (Human), UniProt Q9UGN5); test: PARP2 biochemical assay (BPS kit)
[4] = tested on: total β-catenin in SW480 colorectal cells; test: Total β-catenin MSD 96-well plate assay for SW480 cells; conditions: Homo sapiens, SW480, read-out: SW480-Total beta-catenin (TBC) IC50 IP

Sequence of PARP1 (P09874 whole entry): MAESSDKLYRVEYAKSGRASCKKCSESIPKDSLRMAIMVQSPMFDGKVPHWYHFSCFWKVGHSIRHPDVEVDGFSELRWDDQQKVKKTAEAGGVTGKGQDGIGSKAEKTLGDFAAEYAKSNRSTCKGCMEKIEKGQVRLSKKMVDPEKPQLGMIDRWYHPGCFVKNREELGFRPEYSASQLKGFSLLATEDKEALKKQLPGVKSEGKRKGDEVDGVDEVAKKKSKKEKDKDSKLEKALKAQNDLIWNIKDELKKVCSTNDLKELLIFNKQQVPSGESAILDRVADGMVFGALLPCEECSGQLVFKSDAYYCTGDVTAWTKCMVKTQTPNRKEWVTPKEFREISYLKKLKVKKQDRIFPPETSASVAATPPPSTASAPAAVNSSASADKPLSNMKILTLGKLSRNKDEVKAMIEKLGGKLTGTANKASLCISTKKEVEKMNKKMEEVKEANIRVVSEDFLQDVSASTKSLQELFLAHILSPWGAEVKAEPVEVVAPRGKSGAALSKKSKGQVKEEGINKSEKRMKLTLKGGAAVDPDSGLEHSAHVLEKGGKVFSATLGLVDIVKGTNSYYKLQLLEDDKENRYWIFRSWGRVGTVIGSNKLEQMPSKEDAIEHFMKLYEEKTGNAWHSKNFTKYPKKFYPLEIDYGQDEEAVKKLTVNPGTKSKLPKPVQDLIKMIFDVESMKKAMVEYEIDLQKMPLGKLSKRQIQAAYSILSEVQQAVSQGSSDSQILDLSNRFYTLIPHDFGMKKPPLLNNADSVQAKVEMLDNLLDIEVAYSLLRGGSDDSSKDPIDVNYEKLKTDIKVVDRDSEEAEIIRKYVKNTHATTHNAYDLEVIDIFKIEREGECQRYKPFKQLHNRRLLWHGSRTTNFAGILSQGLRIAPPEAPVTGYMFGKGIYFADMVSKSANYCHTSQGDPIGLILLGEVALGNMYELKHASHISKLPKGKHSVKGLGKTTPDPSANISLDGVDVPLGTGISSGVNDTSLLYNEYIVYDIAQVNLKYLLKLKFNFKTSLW
Sequence of 6×HIS-tankyrase 2 (946-1162) (Q9H2K2 946-1162): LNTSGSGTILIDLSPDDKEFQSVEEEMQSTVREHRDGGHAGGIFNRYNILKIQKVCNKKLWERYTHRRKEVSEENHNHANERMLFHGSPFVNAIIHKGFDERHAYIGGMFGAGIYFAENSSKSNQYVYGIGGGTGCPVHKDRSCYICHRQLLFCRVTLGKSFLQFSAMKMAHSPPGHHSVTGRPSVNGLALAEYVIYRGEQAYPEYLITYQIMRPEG
Sequence of 6×HIS-tankyrase1 (1091-1325) (O95271 1091-1325): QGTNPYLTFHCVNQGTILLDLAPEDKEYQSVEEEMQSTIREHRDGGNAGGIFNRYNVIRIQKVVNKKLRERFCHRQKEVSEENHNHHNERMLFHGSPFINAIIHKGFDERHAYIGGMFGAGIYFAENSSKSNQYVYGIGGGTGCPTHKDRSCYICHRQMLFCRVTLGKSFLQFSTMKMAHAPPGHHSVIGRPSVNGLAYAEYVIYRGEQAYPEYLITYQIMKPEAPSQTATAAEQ
Sequence of PARP2 (Q9UGN5 whole entry): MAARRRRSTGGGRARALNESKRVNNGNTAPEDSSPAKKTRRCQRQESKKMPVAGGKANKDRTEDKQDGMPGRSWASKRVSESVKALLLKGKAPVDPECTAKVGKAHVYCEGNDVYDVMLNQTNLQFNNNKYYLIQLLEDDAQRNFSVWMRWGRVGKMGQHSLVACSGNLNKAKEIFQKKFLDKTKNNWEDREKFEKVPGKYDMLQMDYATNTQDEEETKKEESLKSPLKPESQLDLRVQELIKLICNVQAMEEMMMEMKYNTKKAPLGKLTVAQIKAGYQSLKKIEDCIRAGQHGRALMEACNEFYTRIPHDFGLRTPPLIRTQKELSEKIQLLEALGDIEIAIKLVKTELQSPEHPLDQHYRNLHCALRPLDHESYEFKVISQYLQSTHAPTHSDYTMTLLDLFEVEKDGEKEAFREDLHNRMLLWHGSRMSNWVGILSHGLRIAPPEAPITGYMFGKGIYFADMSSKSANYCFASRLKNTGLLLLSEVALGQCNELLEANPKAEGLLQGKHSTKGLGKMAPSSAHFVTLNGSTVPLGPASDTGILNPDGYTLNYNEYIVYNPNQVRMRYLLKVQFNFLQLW

SMILES	IC50 [1] [nM]	IC50 [2] [nM]	EC50 [3] [nM]	IC50 (PARP1) [nM]	IC50 (PARP2) [nM]	IC50 [4] [nM]
Cc1cccc(-c2nnc(C3CCN(C(=O)CCCc4nc5ccccc5c(=O)[nH]4)CC3)o2)c1 [Example 22, 2-(4-oxo-4-(4-(5-(m-tolyl)-1,3,4-oxadiazol-2-yl)piperidin-1-yl)butyl)quinazolin-4(3H)-one]	19.4	4.13	333	3130	1590	217
O=C(CCSCc1nc2ccccc2c(=O)[nH]1)N1CCC(c2nnc(-c3ccc(F)cc3)o2)CC1 [Example 93, 2-(((3-(4-(5-(4-fluorophenyl)-1,3,4-oxadiazol-2-yl)-1-piperidinyl)-3-oxopropyl)sulfanyl)methyl)-4(3H)-quinazolinone]	95.2	85.1	1230	8290	> 170000	1200
COc1ccc(-c2nnc(C3CCN(C(=O)CCCc4nc5ccccc5c(=O)[nH]4)CC3)o2)cc1 [Example 15, 2-(4-(4-(5-(4-methoxyphenyl)-1,3,4-oxadiazol-2-yl)-1-piperidinyl)-4-oxobutyl)-4(3H)-quinazolinone]	15	3.35	126	3170	1200	86.9
Cc1ccc2[nH]c(=O)n(C3CCN(C(=O)CCCc4nc5ccccc5c(=O)[nH]4)CC3)c2c1 [Example 7, 2-(4-(4-(6-methyl-2-oxo-2,3-dihydro-1H-benzimidazol-1-yl)-1-piperidinyl)-4-oxobutyl)-4(3H)-quinazolinone]	6.94	3.38	651	1930	192	626
O=C(CCCc1nc2ccccc2c(=O)[nH]1)N1CCC(c2nnc(-c3cnccn3)o2)CC1 [Example 14, 2-(4-oxo-4-(4-(5-(2-pyrazinyl)-1,3,4-oxadiazol-2-yl)-1-piperidinyl)butyl)-4(3H)-quinazolinone]	79.7	15.5	1250	8540	2180	837
O=C(CCCc1nc2ccccc2c(=O)[nH]1)N1CCC(c2nnc(-c3ccccc3Cl)o2)CC1 [Example 16, 2-(4-(4-(5-(2-chlorophenyl)-1,3,4-oxadiazol-2-yl)-1-piperidinyl)-4-oxobutyl)-4(3H)-quinazolinone]	107	17.9	1900	5070	560	1190
O=C(CCCc1nc2ccccc2c(=O)[nH]1)N1CCC(n2c(=O)sc3ccccc32)CC1 [Example 50, 2-(4-oxo-4-(4-(2-oxo-1,3-benzothiazol-3(2H)-yl)-1-piperidinyl)butyl)-4(3H)-quinazolinone trifluoroacetic acid]	6.49	1.81	1550	10700	748	256
O=C(CCCc1nc2ccccc2c(=O)[nH]1)N1CCC(c2nnc(-c3cccc(F)c3)o2)CC1 [Example 5, 2-(4-(4-(5-(3-fluorophenyl)-1,3,4-oxadiazol-2-yl)-1-piperidinyl)-4-oxobutyl)-4(3H)-quinazolinone]	31.8	4.84	771	3760	2350	92.2
O=C(CCCc1nc2ccccc2c(=O)[nH]1)N1CCC(c2nnc(-c3ccccc3)o2)CC1 [Example 42, 2-(4-oxo-4-(4-(5-phenyl-1,3,4-oxadiazol-2-yl)-1-piperidinyl)butyl)-4(3H)-quinazolinone]	28.2	8.26	843	7470	825	132
O=C(CCCc1nc2ccccc2c(=O)[nH]1)N1CCC(c2nnc(-c3ccccc3)s2)CC1 [Example 9, 2-(4-oxo-4-(4-(5-phenyl-1,3,4-thiadiazol-2-yl)-1-piperidinyl)butyl)-4(3H)-quinazolinone]	168	18.5	1230	2860	471	56.6

Compounds with a lower IC50 [1], results first:

IC50 [1] [nM]	IC50 [2] [nM]	EC50 [3] [nM]	IC50 (PARP1) [nM]	IC50 (PARP2) [nM]	IC50 [4] [nM]	SMILES
1.34	0.478	114	887	99.7	63.7	O=C(CCCc1nc2ccccc2c(=O)[nH]1)N1CCC(n2c(=O)[nH]c3cc(Cl)ccc32)CC1 [Example 27, 2-(4-(4-(5-chloro-2-oxo-2,3-dihydro-1H-benzimidazol-1-yl)-1-piperidinyl)-4-oxobutyl)-4(3H)-quinazolinone]
0.453	0.341	25.7	2840	1140	34.8	O=C(CCCc1nc2ccccc2c(=O)[nH]1)N[C@H]1CC[C@H](c2nnc(-c3ccncc3)o2)CC1 [Example 33, 4-(4-oxo-3,4-dihydro-2-quinazolinyl)-N-(trans-4-(5-(4-pyridinyl)-1,3,4-oxadiazol-2-yl)cyclohexyl)butanamide]
3.17	0.593	359	2570	998	50.3	O=C(CCCc1nc2ccccc2c(=O)[nH]1)N1CCC(n2c(=O)oc3cc(F)ccc32)CC1 [Example 53, 2-(4-(4-(6-fluoro-2-oxo-1,3-benzoxazol-3(2H)-yl)-1-piperidinyl)-4-oxobutyl)-4(3H)-quinazolinone trifluoroacetic acid]
5.1	0.826	191	723	1810	252	O=C(CCCc1nc2ccccc2c(=O)[nH]1)N[C@H]1CC[C@H](Oc2ccncc2)CC1 [Example 70, 4-(4-oxo-3,4-dihydro-2-quinazolinyl)-N-(trans-4-(4-pyridinyloxyl)cyclohexyl)butanamide]
0.367	0.27	22	1140	701	29.9	O=C(CCCc1nc2ccccc2c(=O)[nH]1)N[C@H]1CC[C@H](c2nnc(-c3cccc(Cl)c3)o2)CC1 [Example 36, N-(trans-4-(5-(3-chlorophenyl)-1,3,4-oxadiazol-2-yl)cyclohexyl)-4-(4-oxo-3,4-dihydro-2-quinazolinyl)butanamide 2,2,2-trifluoroacetate]
2.51	0.719	266	5820	1100	73.6	O=C(CCCc1nc2ccccc2c(=O)[nH]1)N[C@H]1CC[C@H](Oc2ccccn2)CC1 [Example 56, 4-(4-oxo-3,4-dihydro-2-quinazolinyl)-N-(trans-4-(2-pyridinyloxyl)cyclohexyl)butanamide]
2.76	1.6	247	867	103	157	Cc1ccc2c(c1)[nH]c(=O)n2C1CCN(C(=O)CCCc2nc3ccccc3c(=O)[nH]2)CC1 [Example 11, 2-(4-(4-(5-methyl-2-oxo-2,3-dihydro-1H-benzimidazol-1-yl)-1-piperidinyl)-4-oxobutyl)-4(3H)-quinazolinone]
5.07	1.51	1410	4930	397	361	O=C(CCCc1nc2ccccc2c(=O)[nH]1)N1CCC(n2c(=O)[nH]c3cccnc32)CC1 [Example 26, 2-(4-oxo-4-(4-(2-oxo-1,2-dihydro-3H-imidazo[4,5-b]pyridin-3-yl)-1-piperidinyl)butyl)-4(3H)-quinazolinone]
